Broadly, the IC50 is the concentration that gives 50% inhibition.

One test addresses Lck (h) (Homo sapiens, UniProt P06239). Description: Lck Human  Kinase Enzymatic Radiometric Assay. Format: biochemical. The note with it: read-out: Lck IC50 nM Range*. Summed up: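 Substrate 33P-incorporation measured by scintillation counting after spotting on P30 filtermat and phosphoric acid washes. Human Lck reacted 40 min at RT in 50 mM Tris pH 7.5 with 10 mM MgAcetate, [gamma-33P]-ATP, 250 uM Cdc2 peptide, 0.1 mM EGTA and 0.1 mM Na3VO4.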

Test [1] addresses T1, Recombinant (1-346) HPK1 (h) (Homo sapiens, UniProt Q92918).
T1 construct: Recombinant (1-346) HPK1 (h) is incubated with 8 mM MOPS pH 7.0
T1 sequence (Q92918 1-346): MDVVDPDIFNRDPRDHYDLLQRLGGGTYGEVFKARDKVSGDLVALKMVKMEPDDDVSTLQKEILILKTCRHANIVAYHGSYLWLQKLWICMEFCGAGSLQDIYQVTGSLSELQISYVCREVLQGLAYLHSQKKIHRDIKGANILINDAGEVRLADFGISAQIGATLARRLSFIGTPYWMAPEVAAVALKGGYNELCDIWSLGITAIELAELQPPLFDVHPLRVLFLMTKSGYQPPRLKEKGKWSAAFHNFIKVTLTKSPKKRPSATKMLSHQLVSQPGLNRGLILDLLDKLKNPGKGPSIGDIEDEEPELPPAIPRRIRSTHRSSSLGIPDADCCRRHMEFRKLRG
Description: HPK1 Human STE Kinase Enzymatic Radiometric Assay. Format: biochemical. The note with it: read-out: HPK1 IC50 nM Range*. The method, then:
A stock solution of 10 mM of test compound is prepared in DMSO. The compound plate was prepared by 3-fold and 9-point serial dilutions. […] The reaction is initiated by The addition of the Mg/ATP mix. After incubation for 40 minutes at RT, the reaction is stopped by the addition of phosphoric acid to a concentration of 0.5%.

Bounds are passed on as bounds.

Sequence of Lck (h) (P06239 whole entry): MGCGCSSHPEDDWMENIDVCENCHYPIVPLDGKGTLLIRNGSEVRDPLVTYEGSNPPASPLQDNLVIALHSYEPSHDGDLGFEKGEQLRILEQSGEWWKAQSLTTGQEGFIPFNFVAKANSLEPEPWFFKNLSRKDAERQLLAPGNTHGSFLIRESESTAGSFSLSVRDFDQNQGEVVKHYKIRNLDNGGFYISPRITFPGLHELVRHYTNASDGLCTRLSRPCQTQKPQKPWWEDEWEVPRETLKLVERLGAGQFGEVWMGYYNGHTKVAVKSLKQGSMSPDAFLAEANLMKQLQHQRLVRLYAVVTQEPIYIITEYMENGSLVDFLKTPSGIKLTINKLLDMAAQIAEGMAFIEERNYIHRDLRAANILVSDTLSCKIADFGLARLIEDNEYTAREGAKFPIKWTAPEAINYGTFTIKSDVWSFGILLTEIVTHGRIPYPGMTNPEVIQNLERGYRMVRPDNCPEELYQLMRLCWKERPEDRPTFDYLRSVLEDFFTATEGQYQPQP

For `CN1C[C@@H]2C[C@]2(c2ccc(-c3cc(-c4cc(F)c5c(c4)CCNC5=O)c(N)nc3F)cc2)C1` [I-353, 6-(2-amino-6-fluoro-5-(4-((1S,5R)-3-methyl-3-azabicyclo[3.1.0]hexan-1-yl)phenyl)pyridin-3-yl)-8-fluoro-3,4-dihydroisoquinolin-1(2H)-one], the values for the IC50 (at Lck (h); in test [1]) were 101 to 1000 nM and 0.1 to 10 nM, respectively.
On to `COc1cc(-c2cc(-c3ccc(N4CCN(C(C)C)CC4)cc3)c(F)nc2N)cc2c1C(=O)NCC2` [I-354, 6-(2-amino-6-fluoro-5-(4-(4-isopropylpiperazin-1-yl)phenyl)pyridin-3-yl)-8-methoxy-3,4-dihydroisoquinolin-1(2H)-one], for which the IC50 on Lck (h) was in the range of 11 to 100 nM; in test [1], 101 to 1000 nM.
`CC(C)N1CCN(c2ccc(-c3cc(-c4cc5c(c(N(C)C)c4)C(=O)NCC5)c(N)nc3F)cc2)CC1` [I-355, 6-(2-amino-6-fluoro-5-(4-(4-isopropylpiperazin-1-yl)phenyl)pyridin-3-yl)-8-(dimethylamino)-3,4-dihydroisoquinolin-1(2H)-one]: the IC50 at Lck (h) is more than 1000 nM; in test [1] it was 101 to 1000 nM.
The like results for `CNc1cc(-c2cc(-c3ccc(N4CCN(C(C)C)CC4)cc3)c(F)nc2N)cc2c1C(=O)NCC2` [I-356, 6-(2-amino-6-fluoro-5-(4-(4-isopropylpiperazin-1-yl)phenyl)pyridin-3-yl)-8-(methylamino)-3,4-dihydroisoquinolin-1(2H)-one] were, in that order, 101 to 1000 nM and 11 to 100 nM.
Regarding `CC(C)N1CCN(c2ccc(-c3cc(-c4cc(N)c5c(c4)CCNC5=O)c(N)nc3F)cc2)CC1` [I-357, 8-amino-6-(2-amino-6-fluoro-5-(4-(4-isopropylpiperazin-1-yl)phenyl)pyridin-3-yl)-3,4-dihydroisoquinolin-1(2H)-one], the IC50 (on Lck (h); in test [1]) was 101 to 1000 nM each time.
With `CC(C)N1CCN(c2ccc(-c3cc(-c4ccc5c(c4)OCCNC5=O)c(N)nc3F)cc2)CC1` [I-358, 8-(2-amino-6-fluoro-5-(4-(4-isopropylpiperazin-1-yl)phenyl)pyridin-3-yl)-3,4-dihydrobenzo[f][1,4]oxazepin-5(2H)-one], the IC50 on Lck (h) is more than 1000 nM; in test [1], 0.1 to 10 nM.
For `Nc1nc(F)c(-c2ccc(N3CCS(=O)(=O)CC3)cc2)cc1-c1cc(F)c2c(c1)CCNC2=O` [I-359, 6-(2-amino-5-(4-(1,1-dioxidothiomorpholino)phenyl)-6-fluoropyridin-3-yl)-8-fluoro-3,4-dihydroisoquinolin-1(2H)-one], the IC50 is more than 1000 nM on Lck (h) and 0.1 to 10 nM in test [1].
In the case of `CC(C)N1CCN(c2ccc(-c3cc(-c4ccc5c(=O)[nH]cnc5c4)c(N)nc3F)cc2)CC1` [I-362, 7-(2-amino-6-fluoro-5-(4-(4-isopropylpiperazin-1-yl)phenyl)pyridin-3-yl)quinazolin-4(3H)-one], the IC50 at Lck (h) is more than 1000 nM; in test [1] it was 0.1 to 10 nM.
The like results for `CC(C)N1CCN(c2ccc(-c3cc(-c4ccc5c(=O)[nH]ncc5c4)c(N)nc3F)cc2)CC1` [I-363, 6-(2-amino-6-fluoro-5-(4-(4-isopropylpiperazin-1-yl)phenyl)pyridin-3-yl)phthalazin-1(2H)-one] were, in that order, more than 1000 nM and 11 to 100 nM.
For `CC(C)N1CCN(c2ccc(-c3cc(-c4ccc5c(=O)[nH]ccc5c4)c(N)nc3F)cc2)CC1` [I-364, 6-(2-amino-6-fluoro-5-(4-(4-isopropylpiperazin-1-yl)phenyl)pyridin-3-yl)isoquinolin-1(2H)-one], the results for the IC50 (at Lck (h); in test [1]) were more than 1000 nM and 0.1 to 10 nM, respectively.
Consider `Nc1nc(F)c(-c2ccc(C3CCOCC3)c([C@@H]3CCCN3)c2)cc1-c1ccc2c(c1)CCNC2=O` [I-367, (S)-6-(2-amino-6-fluoro-5-(3-(pyrrolidin-2-yl)-4-(tetrahydro-2H-pyran-4-yl)phenyl)pyridin-3-yl)-3,4-dihydroisoquinolin-1(2H)-one], for which the IC50 on Lck (h) lay within 101 to 1000 nM; in test [1], 0.1 to 10 nM.
For the molecule `Nc1nc(F)c(-c2ccc(C3CCOCC3)c([C@@H]3CCCN3)c2)cc1-c1cc2c(cc1F)C(=O)NCC2` [I-368, (S)-6-(2-amino-6-fluoro-5-(3-(pyrrolidin-2-yl)-4-(tetrahydro-2H-pyran-4-yl)phenyl)pyridin-3-yl)-7-fluoro-3,4-dihydroisoquinolin-1(2H)-one], the figures for the IC50 (at Lck (h); in test [1]) were 11 to 100 nM and 0.1 to 10 nM, respectively.
As for `Nc1nc(F)c(-c2ccc(C3CCOCC3)c([C@@H]3CCCN3)c2)cc1-c1cc(F)c2c(c1)CCNC2=O` [I-369, (S)-6-(2-amino-6-fluoro-5-(3-(pyrrolidin-2-yl)-4-(tetrahydro-2H-pyran-4-yl)phenyl)pyridin-3-yl)-8-fluoro-3,4-dihydroisoquinolin-1(2H)-one], the IC50 on Lck (h) is more than 1000 nM; in test [1], 0.1 to 10 nM.
The like results for `Nc1nc(F)c(-c2ccc(C3CCOCC3)c([C@@H]3CCCN3)c2)cc1-c1ccc2c(=O)[nH]ccc2c1` [I-370, (S)-6-(2-amino-6-fluoro-5-(3-(pyrrolidin-2-yl)-4-(tetrahydro-2H-pyran-4-yl)phenyl)pyridin-3-y)isoquinolin-1(2H)-one] were, in that order, more than 1000 nM and 0.1 to 10 nM.
As to `CC(C)N1CCN(c2ccc(-c3cc(-c4cc(F)c5c(=O)[nH]ccc5c4)c(N)nc3F)cc2)CC1` [I-372, 6-(2-amino-6-fluoro-5-(4-(4-isopropylpiperazin-1-yl)phenyl)pyridin-3-yl)-8-fluoroisoquinolin-1(2H)-one], the results for the IC50 (on Lck (h); in test [1]) were 101 to 1000 nM and 0.1 to 10 nM, respectively.
For `CC(C)N1CCN(c2ccc(-c3cc(-c4cc5cc[nH]c(=O)c5cc4F)c(N)nc3F)cc2)CC1` [I-373, 6-(2-amino-6-fluoro-5-(4-(4-isopropylpiperazin-1-yl)phenyl)pyridin-3-yl)-7-fluoroisoquinolin-1(2H)-one], the IC50 at Lck (h) lay within 11 to 100 nM; in test [1] it was 0.1 to 10 nM.
With `Nc1nc(F)c(-c2ccc(N3CCN(CC4CC4)CC3)cc2)cc1-c1ccc2c(=O)[nH]ccc2c1` [I-374, 6-(2-amino-5-(4-(4-(cyclopropylmethyl)piper-azin-1-yl)phenyl)-6-fluoropyridin-3-yl)isoquinolin-1(2H)-one], the figures for the IC50 (on Lck (h); in test [1]) were more than 1000 nM and 0.1 to 10 nM, respectively.
As for `Nc1nc(F)c(-c2ccc(N3CCN(CC4CC4)CC3)cc2)cc1-c1cc(F)c2c(=O)[nH]ccc2c1` [I-375, 6-(2-amino-5-(4-(4-(cyclopropylmethyl)piper-azin-1-yl)phenyl)-6-fluoropyridin-3-yl)-8-fluoroisoquinolin-1(2H)-one], the IC50 on Lck (h) was more than 1000 nM; in test [1] it was 0.1 to 10 nM.
Consider `Nc1nc(F)c(-c2ccc(N3CCN(CC4CC4)CC3)cc2)cc1-c1cc2cc[nH]c(=O)c2cc1F` [I-376, 6-(2-amino-5-(4-(4-(cyclopropylmethyl)piper-azin-1-yl)phenyl)-6-fluoropyridin-3-yl)-7-fluoroisoquinolin-1(2H)-one], for which the IC50 at Lck (h) was more than 1000 nM; in test [1], 0.1 to 10 nM.
For `Cc1cc2cc(-c3cc(-c4ccc(N5CCN(C(C)C)CC5)cc4)c(F)nc3N)ccc2c(=O)[nH]1` [I-377, 6-(2-amino-6-fluoro-5-(4-(4-isoporpylpiperazin-1-yl)phenyl)pyridin-3-yl)-3-methylisoquinolin-1(2H)-one], the values for the IC50 (at Lck (h); in test [1]) were 101 to 1000 nM and 0.1 to 10 nM, respectively.
Regarding `Cc1c[nH]c(=O)c2ccc(-c3cc(-c4ccc(N5CCN(C(C)C)CC5)cc4)c(F)nc3N)cc12` [I-378, 6-(2-amino-6-fluoro-5-(4-(4-isopropylpiperazin-1-yl)phenyl)pyridin-3-yl)-4-methylisoquinolin-1(2H)-one], the values for the IC50 (at Lck (h); in test [1]) were more than 1000 nM and 0.1 to 10 nM, respectively.
Regarding `CC(C)N1CCN(c2ccc(-c3cc(-c4ccc5c(=O)[nH]cc(F)c5c4)c(N)nc3F)cc2)CC1` [I-379, 6-(2-amino-6-fluoro-5-(4-(4-isopropylpiperazin-1-yl)phenyl)pyridin-3-yl)-4-fluoroisoquinolin-1(2H)-one], the IC50 at Lck (h) is more than 1000 nM; in test [1], 0.1 to 10 nM.
The like results for `Cc1cc2cc(-c3cc(-c4ccc(N5CCN(C(C)C)CC5)cc4)c(F)nc3N)cc(F)c2c(=O)[nH]1` [I-380, 6-(2-amino-6-fluoro-5-(4-(4-isopropylpiperazin-1-yl)phenyl)pyridin-3-yl)-8-fluoro-3-methylisoquinolin-1(2H)-one] were, in that order, more than 1000 nM and 0.1 to 10 nM.
In the case of `Cc1[nH]c(=O)c2ccc(-c3cc(-c4ccc(N5CCN(C(C)C)CC5)cc4)c(F)nc3N)cc2c1F` [I-381, 6-(2-amino-6-fluoro-5-(4-(4-isopropylpiperazin-1-yl)phenyl)pyridin-3-yl)-4-fluoro-3-methylisoquinolin-1(2H)-one], the IC50 was more than 1000 nM at Lck (h) and 101 to 1000 nM in test [1].
The like results for `Nc1nc(F)c(-c2ccc(N3CCN(CCC4CC4)CC3)cc2)cc1-c1cc(F)c2c(c1)CCNC2=O` [I-384, 6-(2-amino-5-(4-(4-(2-cyclopropylethyl)piperazin-1-yl)phenyl)-6-fluoropyridin-3-yl)-8-fluoro-3,4-dihydroisoquinolin-1(2H)-one] were, in that order, 101 to 1000 nM and 0.1 to 10 nM.

For the origin of these results see patent publication US20240343704A1, “HALO-SUBSTITUTED AMINO PYRIDINE COMPOUNDS AS INHIBITORS OF THE HAEMATOPOIETIC PROGENITOR KINASE 1 (HPK1)” (priority 2021, published 2024).
